The values below come from patent US6537996B2, “Modulators of p38 MAP kinase” (Iconix Pharmaceuticals, Inc., priority 2000, dated 2003).

For test [1], the target named is T1, Recombinant p38 (Homo sapiens, UniProt Q16539).
T1 construct: purchased Biomol SE-150
Kind of test: p38 assay (32P incorporation into GST-ATF-2). The test is classed as biochemical. The settings on record: recombinant p38, GST-ATF-2 substrate, 30 μM ATP; IC50 estimated from graph. As for the experimental part: (A) Protocol: Recombinant p38 was pre-incubated for 30 minutes at room temperature in ADB (Assay Dilution Buffer: 20 mM MOPS, pH 7.2, 20 mM MgCl2, 5 mM EGTA, 1 mM DTT, 25 mM β-glycerolphosphate, 2 mM pNPP, 0.1 mM sodium orthovanadate) with recombinant GST-ATF-2 and compounds at various concentrations. The DMSO concentration was held constant at 0.1% (v/v) independent of the compound concentration. Kinase reactions were started with a mixture of ^32P-γ-ATP and ATP in ADB and were incubated for 30 minutes at 37° C. Final concentrations in kinase reactions was 0.625 ng/μl recombinant p38 (Biomol, catalog number SE-150), 62.5 ng/μl recombinant GST-ATF-2 (Upstate Biotechnology, catalog #12-367) and 30 μM ATP (Amersham, catalog #AA0068, used within two weeks of the reference date). Reactions were terminated by the addition of stopmix (final concentrations: 62.5 mM Tris pH 6.8, 10% (v/v) glycerol, 5% (v/v) B-mercaptoethanol, 20 mg/ml SDS, 1 mg/ml bromophenol blue). At this point samples were either processed directly or stored at 4° C. For analysis, samples were heated to 95° C. for 5 min and proteins were separated by SDS-PAGE using 8-16% precast gels (Novex). […] Screens were scanned using a PhosphoImager SI (Molecular Dynamics) and the amount of radioactive ^32P incorporated into GST-ATF-2 was quantified using ImageQuant (Molecular Dynamics) software. […]

Test [2] deals with yeast. Put plainly: growth rescue ARC experiments performed in yeast. The class given is cell-based. The settings on record: Saccharomyces cerevisiae, read-out: in vivo IC50.

T1 sequence (Q16539 whole entry): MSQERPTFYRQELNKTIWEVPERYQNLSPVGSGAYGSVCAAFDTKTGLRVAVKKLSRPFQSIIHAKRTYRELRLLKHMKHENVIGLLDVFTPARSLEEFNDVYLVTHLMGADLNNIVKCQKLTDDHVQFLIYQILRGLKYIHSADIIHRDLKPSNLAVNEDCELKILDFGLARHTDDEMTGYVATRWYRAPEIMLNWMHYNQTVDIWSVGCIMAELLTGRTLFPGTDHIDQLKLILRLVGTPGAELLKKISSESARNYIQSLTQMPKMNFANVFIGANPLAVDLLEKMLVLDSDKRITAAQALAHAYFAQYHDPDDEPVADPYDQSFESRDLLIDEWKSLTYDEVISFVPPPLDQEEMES

Take `CC(C)/N=C(/Nc1cccc(C(F)(F)F)c1)c1ccncc1` [X, N-(3-trifluoromethylphenyl)-N′-isopropyl-4-amidinopyridine]: the concentration for half-maximal inhibition (IC50) in test [1] is 0.75 µM; in test [2] it was 13.2 µM.
